# Where a name gives a salt, the structure may show the parent alone.
# Columns and labels:
# Digitaria = assay: Pre-emergence test/greenhouse; type: in vivo; details: 30 g of ai./ha, after three weeks
# Method: (§1) Pre-Emergence Test/Greenhouse Solvent: 5 parts by weight of acetone Emulsifier: 1 part by weight of alkylaryl polyglycol ether To produce a suitable preparation of active compound, 1 part by weight of active compound is mixed with the stated amount of solvent, the stated amount of emulsifier is added and the concentrate is diluted with water to the desired concentration. Seeds of the test plants are sown in normal soil. After about 24 hours, the soil is sprayed with the preparation of active compound such that the particular amount of active compound desired is applied per unit area. The concentration of the spray liquor is chosen so that the particular amount of active compound desired is applied in 500 ml of water per hectare. After three weeks, the degree of damage to the plants is assessed in % damage in comparison to the development of the untreated control. The figures denote: • 0%=no effect (like untreated control) • 100%=total destruction
# Bromus = assay: Pre-emergence test/greenhouse; type: in vivo; details: 30 g of ai./ha, after three weeks
# Method: as §1
# Alopecurus = assay: Pre-emergence test/greenhouse; type: in vivo; details: 504 h, after three weeks, read-out: degree of damage, Alopecurus
# Method: as §1
# Setaria = assay: Pre-emergence test/greenhouse; type: in vivo; details: after three weeks
# Method: as §1
# Avena = assay: Pre-emergence test/greenhouse; type: in vivo; details: 504 h, after three weeks, read-out: degree of damage, Avena
# Method: as §1
# Wheat [1] = assay: Pre-emergence test/greenhouse; type: in vivo; details: in vivo
# Method: as §1
# Matricaria = assay: Pre-emergence test/greenhouse; type: in vivo; details: 30 g of ai./ha, after three weeks
# Method: as §1
# Echinochloa = assay: Pre-emergence test/greenhouse; type: in vivo; details: 30 g of ai./ha, after three weeks
# Method: as §1
# Polygonum = assay: Pre-emergence test/greenhouse; type: in vivo; details: 30 g of ai./ha, after three weeks
# Method: as §1
# wheat [2] = assay: Post-emergence tests/outdoors (Example C, Canada), crop damage; type: in vivo, summer wheat; details: in vivo
# Method: (§2) Post-Emergence Tests/Outdoors In addition to the comparative compounds (B) and (D), the sodium salt of the compound of the formula (I) was tested under outdoor conditions in the main cultivation areas of summer wheat in Canada against economically important weeds. The small-plot experiments were carried out on cultivated land under agricultural use. Areas with particularly extensive weed growth were chosen preferably. The active compounds were applied across the area by the spray method, with an average droplet size. To produce a useful preparation of active compound, the active compounds were formulated as 70 WP (70% w/w water-dispersible powder) and applied with customary amounts of water. Wetting of the plants was improved by addition of a surface-active substance (SAS) in the concentrations recommended by the respective manufacturer. To assess the crop compatibility, from 1 to 8 weeks after the treatment, plant growth inhibitions or […] of the leaf area were assessed in % damage in comparison to the development of the untreated control. At different intervals after the treatment, the herbicidal activity was assessed as % reduction in comparison to the untreated control, based on the weed development. The figures denote: • 0%=no damage of the crops or no herbicidal effect, • 100%=total destruction of the crops or the weeds.
# Avena fatua [3] = assay: Post-emergence tests/outdoors (Example C, Canada); type: in vivo; details: outdoors
# Method: as §2
# Thlaspi arvense [4] = assay: Post-emergence tests/outdoors (Example C, Canada); type: in vivo; details: outdoors, 30 g of a.i./ha + SAS (Canplus 411), 70 WP, 3 tests
# Method: as §2
# Sinapis arvensis [5] = assay: Post-emergence tests/outdoors (Example C, Canada); type: in vivo; details: outdoors, 30 g of a.i./ha + SAS (Canplus 411), 70 WP, 5 tests
# Method: as §2
# Fallopia convolvulus = assay: Post-emergence tests/outdoors (Example C, Canada); type: in vivo; details: outdoors, 30 g of a.i./ha + SAS (Canplus 411), 70 WP, 5 tests
# Method: as §2
# Setaria viridis [6] = assay: Post-emergence tests/outdoors (Example C, Canada); type: in vivo; details: outdoors, 30 g of a.i./ha + SAS (Canplus 411), 70 WP, 5 tests
# Method: as §2
# Amaranthus retroflexus = assay: Post-emergence tests/outdoors (Example D, Canada and USA); type: in vivo; details: outdoors, 28–30 g of a.i./ha + SAS, 70 WP or 70 WG, 60 tests
# Method: (§3) Post-Emergence Tests/Outdoors The sodium salt of the compound of the formula (I) was tested under outdoor conditions in the main cultivation areas of summer wheat in Canada and the USA against economically important weeds. The small-plot experiments were carried out on cultivated land under agricultural use, with cultivation and climate conditions which can be considered to be representative for the period of the trial. Areas with particularly extensive weed growth were chosen by way of preference. The active compound was applied across the area by the spray method, with an average droplet size. To produce a useful preparation of active compound, the active compound was formulated as 70 WP or 70 WG (70% w/w water-dispersible powder or granules) and applied with customary amounts of water. Wetting of the plants was improved by addition of a surface-active substance (SAS) in the concentration recommended by the manufacturer. To assess the crop compatibility, from 1 to 8 weeks after the treatment, plant growth inhibitions or […] of the leaf area were assessed in % damage in comparison to the development of the untreated control. At different intervals after the treatment, the herbicidal activity was assessed as % reduction in comparison to the untreated control, based on the weed development. The figures denote: • 0%=no damage of the crops or no herbicidal effect, • 100%=total destruction of the crops or the weeds.
# Capsella bursa-pastoris = assay: as above; type: in vivo; details: outdoors, 28–30 g of a.i./ha + SAS, 70 WP or 70 WG, 12 tests
# Method: as §3
# Brassica spp. = assay: as above; type: in vivo; details: outdoors, 28–30 g of a.i./ha + SAS, 70 WP or 70 WG, 27 tests
# Method: as §3
# Avena fatua [7] = assay: as above; type: in vivo; details: outdoors, 28–30 g of a.i./ha + SAS, 70 WP or 70 WG, 263 tests
# Method: as §3
# Thlaspi arvense [8] = assay: as above; type: in vivo; details: outdoors, 28–30 g of a.i./ha + SAS, 70 WP or 70 WG, 45 tests
# Method: as §3
# Sinapis arvensis [9] = assay: as above; type: in vivo; details: outdoors, 28–30 g of a.i./ha + SAS, 70 WP or 70 WG, 48 tests
# Method: as §3
# Setaria viridis [10] = assay: as above; type: in vivo; details: outdoors, 28–30 g of a.i./ha + SAS, 70 WP or 70 WG, 102 tests
# Method: as §3
compound,measurement,setting,value
"COc1nn(C(=O)NS(=O)(=O)c2ccccc2OC(F)(F)F)c(=O)n1C [(I)-Na-salt, 2-(2-trifluoromethoxy-phenylsulphonylaminocarbonyl)-4-methyl-5-methoxy-2,4-dihydro-3H-1,2,4-triazol-3-one]","degree of damage, Digitaria",Digitaria,100%
same,"degree of damage, Bromus",Bromus,100%
same,pest or weed control at 30 g/ha,Alopecurus; 30 g of ai./ha,100%
same,pest or weed control at 250 g/ha,Alopecurus; 250 g ai./ha,100%
same,"degree of damage, Setaria",Setaria; 30 g of ai./ha,100%
same,"degree of damage, Setaria",Setaria; 250 g ai./ha,99%
same,pest or weed control at 30 g/ha,Avena; 30 g of ai./ha,95%
same,pest or weed control at 250 g/ha,Avena; 250 g ai./ha,99%
same,"compatibility with crop plants (wheat), in words",Wheat [1],very good compatibility
same,"degree of damage, Wheat","Wheat [1]; wheat, 3 weeks",0%
same,"degree of damage, Matricaria",Matricaria,100%
same,"degree of damage, Echinochloa",Echinochloa,80%
same,"degree of damage, Polygonum",Polygonum,90%
same,"crop compatibility compared with comparative compounds (B) and (D), in words",wheat [2],approximately the same compatibility
same,"herbicidal effect (%), Avena fatua","Avena fatua [3]; 30 g of a.i./ha + SAS (Canplus 411), 70 WP, 6 tests",88%
same,"activity against Avena fatua compared with comparative compounds (B) and (D), in words",Avena fatua [3]; post-emergence,considerably stronger activity
same,"herbicidal effect (%), Thlaspi arvense",Thlaspi arvense [4],93%
same,"herbicidal effect (%), Sinapis arvensis",Sinapis arvensis [5],94%
same,"herbicidal effect (%), Fallopia convolvulus",Fallopia convolvulus,73%
same,"herbicidal effect (%), Setaria viridis",Setaria viridis [6],94%
same,"herbicidal effect (%), Amaranthus retroflexus",Amaranthus retroflexus,90%
same,"herbicidal effect (%), Capsella bursa-pastoris",Capsella bursa-pastoris,90%
same,"herbicidal effect (%), Brassica spp.",Brassica spp.,93%
same,"herbicidal effect (%), Avena fatua",Avena fatua [7],90%
same,"herbicidal effect (%), Thlaspi arvense",Thlaspi arvense [8],97%
same,"herbicidal effect (%), Sinapis arvensis",Sinapis arvensis [9],98%
same,"herbicidal effect (%), Setaria viridis",Setaria viridis [10],94%
